Blank lines part the entries; values can stand above or below the compound they belong to. Ends that are not written are not given here. Peptide text beside a SMILES is read from it. * marks the point of attachment. Biotin = O=C1N[C@H]2[C@H](CS[C@H]2CCCCC(=O)*)N1
Columns and labels:
Assay in all cases: G' assay (10 uM PL peptide), results of TABLE 7 and TABLE 12
Type in all cases: binding
[1] = target: T1, PDZ protein (GST-PDZ fusion) (Homo sapiens, UniProt Q9UQ26); conditions: PDZ KIAA0751(L), PDZ Domain 1
T1 construct: made in house; host or cells: E. coli (DH5alpha, BL21 or JM109)
T1 sequence (Q9UQ26 1-1411): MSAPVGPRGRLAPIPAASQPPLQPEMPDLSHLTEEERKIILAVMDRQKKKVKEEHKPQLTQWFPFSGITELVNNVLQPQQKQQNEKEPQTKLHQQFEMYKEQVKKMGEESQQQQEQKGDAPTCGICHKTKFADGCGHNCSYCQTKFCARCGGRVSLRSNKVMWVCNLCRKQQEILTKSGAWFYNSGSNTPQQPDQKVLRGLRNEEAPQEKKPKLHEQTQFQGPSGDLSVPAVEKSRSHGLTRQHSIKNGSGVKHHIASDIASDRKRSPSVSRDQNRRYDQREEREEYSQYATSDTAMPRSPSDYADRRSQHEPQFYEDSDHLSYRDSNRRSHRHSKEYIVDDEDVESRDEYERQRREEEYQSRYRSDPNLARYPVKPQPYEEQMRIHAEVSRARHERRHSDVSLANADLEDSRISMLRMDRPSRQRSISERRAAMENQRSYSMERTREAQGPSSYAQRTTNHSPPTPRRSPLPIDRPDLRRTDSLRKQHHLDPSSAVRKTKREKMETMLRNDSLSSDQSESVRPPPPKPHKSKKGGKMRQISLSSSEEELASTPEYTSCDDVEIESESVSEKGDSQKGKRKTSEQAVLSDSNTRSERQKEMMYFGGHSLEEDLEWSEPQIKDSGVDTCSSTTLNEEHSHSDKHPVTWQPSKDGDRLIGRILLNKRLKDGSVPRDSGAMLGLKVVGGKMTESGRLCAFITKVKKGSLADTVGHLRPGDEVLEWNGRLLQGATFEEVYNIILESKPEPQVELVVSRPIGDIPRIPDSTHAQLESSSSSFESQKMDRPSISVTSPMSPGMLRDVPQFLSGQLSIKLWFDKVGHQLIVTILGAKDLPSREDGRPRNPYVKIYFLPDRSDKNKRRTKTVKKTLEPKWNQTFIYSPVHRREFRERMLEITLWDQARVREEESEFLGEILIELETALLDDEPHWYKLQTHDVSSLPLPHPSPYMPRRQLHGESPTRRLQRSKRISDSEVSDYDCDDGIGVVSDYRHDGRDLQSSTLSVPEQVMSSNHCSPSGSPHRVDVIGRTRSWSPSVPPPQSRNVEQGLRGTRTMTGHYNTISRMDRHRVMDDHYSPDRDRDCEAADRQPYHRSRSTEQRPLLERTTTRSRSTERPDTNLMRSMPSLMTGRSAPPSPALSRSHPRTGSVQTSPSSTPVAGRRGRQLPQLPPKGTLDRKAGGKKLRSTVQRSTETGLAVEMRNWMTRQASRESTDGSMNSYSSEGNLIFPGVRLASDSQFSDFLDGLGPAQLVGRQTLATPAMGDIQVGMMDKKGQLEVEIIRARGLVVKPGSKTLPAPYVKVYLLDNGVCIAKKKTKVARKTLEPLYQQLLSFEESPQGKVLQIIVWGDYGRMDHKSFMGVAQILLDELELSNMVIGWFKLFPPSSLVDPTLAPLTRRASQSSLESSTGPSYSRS
In short: (§1)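 Same steps as the G-zero format, apart from a peptide concentration of 10 uM in place of 20 uM in step 2. Amino-terminally biotinylated PL peptides bind GST-PDZ fusions, and retained peptide is quantified by 450 nm absorbance.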

[2] = target: T2, PDZ protein (GST-PDZ fusion) (Homo sapiens, UniProt O60307); conditions: PDZ KIAA0561, PDZ Domain 1
T2 construct: made in house; host or cells: E. coli (DH5alpha, BL21 or JM109)
T2 sequence (O60307 whole entry, the tested form may be a part): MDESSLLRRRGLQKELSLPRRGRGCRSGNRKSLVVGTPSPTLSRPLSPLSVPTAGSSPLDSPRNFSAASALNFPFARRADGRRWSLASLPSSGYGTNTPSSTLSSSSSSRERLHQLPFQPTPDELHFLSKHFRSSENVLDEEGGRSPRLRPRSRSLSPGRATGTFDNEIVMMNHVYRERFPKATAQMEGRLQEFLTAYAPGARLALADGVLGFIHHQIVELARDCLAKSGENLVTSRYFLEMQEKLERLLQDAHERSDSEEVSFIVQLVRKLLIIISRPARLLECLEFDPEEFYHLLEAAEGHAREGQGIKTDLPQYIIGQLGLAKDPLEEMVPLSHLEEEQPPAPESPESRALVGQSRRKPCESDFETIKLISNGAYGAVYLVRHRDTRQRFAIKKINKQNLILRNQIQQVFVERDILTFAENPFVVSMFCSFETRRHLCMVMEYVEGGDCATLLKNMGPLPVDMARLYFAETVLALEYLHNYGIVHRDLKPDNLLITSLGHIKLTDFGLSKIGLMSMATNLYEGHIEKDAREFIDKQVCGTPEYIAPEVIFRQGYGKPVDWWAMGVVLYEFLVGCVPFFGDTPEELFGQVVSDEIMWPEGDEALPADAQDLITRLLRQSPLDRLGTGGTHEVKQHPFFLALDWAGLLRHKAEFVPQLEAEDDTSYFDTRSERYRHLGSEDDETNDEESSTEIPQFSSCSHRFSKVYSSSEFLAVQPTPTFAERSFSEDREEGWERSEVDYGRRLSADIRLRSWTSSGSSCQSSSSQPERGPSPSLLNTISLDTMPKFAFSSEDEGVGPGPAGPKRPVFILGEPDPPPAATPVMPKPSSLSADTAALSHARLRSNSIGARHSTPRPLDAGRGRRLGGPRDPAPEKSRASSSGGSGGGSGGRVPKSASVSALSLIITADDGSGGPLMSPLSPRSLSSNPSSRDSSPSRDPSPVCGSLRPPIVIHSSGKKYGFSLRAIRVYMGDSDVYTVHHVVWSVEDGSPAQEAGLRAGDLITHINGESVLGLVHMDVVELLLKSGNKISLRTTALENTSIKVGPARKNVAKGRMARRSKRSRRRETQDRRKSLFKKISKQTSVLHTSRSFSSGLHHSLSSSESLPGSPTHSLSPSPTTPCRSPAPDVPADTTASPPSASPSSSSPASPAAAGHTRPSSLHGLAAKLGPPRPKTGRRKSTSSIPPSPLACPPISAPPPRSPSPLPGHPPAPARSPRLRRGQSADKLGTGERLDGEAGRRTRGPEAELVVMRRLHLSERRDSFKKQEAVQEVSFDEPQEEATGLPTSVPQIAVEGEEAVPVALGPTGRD
In short: as §1

[3] = target: T3, PDZ protein (GST-PDZ fusion) (Homo sapiens, UniProt O15021); conditions: PDZ KIAA0303, PDZ Domain 1
T3 construct: made in house; host or cells: E. coli (DH5alpha, BL21 or JM109)
T3 sequence (O15021 whole entry, the tested form may be a part): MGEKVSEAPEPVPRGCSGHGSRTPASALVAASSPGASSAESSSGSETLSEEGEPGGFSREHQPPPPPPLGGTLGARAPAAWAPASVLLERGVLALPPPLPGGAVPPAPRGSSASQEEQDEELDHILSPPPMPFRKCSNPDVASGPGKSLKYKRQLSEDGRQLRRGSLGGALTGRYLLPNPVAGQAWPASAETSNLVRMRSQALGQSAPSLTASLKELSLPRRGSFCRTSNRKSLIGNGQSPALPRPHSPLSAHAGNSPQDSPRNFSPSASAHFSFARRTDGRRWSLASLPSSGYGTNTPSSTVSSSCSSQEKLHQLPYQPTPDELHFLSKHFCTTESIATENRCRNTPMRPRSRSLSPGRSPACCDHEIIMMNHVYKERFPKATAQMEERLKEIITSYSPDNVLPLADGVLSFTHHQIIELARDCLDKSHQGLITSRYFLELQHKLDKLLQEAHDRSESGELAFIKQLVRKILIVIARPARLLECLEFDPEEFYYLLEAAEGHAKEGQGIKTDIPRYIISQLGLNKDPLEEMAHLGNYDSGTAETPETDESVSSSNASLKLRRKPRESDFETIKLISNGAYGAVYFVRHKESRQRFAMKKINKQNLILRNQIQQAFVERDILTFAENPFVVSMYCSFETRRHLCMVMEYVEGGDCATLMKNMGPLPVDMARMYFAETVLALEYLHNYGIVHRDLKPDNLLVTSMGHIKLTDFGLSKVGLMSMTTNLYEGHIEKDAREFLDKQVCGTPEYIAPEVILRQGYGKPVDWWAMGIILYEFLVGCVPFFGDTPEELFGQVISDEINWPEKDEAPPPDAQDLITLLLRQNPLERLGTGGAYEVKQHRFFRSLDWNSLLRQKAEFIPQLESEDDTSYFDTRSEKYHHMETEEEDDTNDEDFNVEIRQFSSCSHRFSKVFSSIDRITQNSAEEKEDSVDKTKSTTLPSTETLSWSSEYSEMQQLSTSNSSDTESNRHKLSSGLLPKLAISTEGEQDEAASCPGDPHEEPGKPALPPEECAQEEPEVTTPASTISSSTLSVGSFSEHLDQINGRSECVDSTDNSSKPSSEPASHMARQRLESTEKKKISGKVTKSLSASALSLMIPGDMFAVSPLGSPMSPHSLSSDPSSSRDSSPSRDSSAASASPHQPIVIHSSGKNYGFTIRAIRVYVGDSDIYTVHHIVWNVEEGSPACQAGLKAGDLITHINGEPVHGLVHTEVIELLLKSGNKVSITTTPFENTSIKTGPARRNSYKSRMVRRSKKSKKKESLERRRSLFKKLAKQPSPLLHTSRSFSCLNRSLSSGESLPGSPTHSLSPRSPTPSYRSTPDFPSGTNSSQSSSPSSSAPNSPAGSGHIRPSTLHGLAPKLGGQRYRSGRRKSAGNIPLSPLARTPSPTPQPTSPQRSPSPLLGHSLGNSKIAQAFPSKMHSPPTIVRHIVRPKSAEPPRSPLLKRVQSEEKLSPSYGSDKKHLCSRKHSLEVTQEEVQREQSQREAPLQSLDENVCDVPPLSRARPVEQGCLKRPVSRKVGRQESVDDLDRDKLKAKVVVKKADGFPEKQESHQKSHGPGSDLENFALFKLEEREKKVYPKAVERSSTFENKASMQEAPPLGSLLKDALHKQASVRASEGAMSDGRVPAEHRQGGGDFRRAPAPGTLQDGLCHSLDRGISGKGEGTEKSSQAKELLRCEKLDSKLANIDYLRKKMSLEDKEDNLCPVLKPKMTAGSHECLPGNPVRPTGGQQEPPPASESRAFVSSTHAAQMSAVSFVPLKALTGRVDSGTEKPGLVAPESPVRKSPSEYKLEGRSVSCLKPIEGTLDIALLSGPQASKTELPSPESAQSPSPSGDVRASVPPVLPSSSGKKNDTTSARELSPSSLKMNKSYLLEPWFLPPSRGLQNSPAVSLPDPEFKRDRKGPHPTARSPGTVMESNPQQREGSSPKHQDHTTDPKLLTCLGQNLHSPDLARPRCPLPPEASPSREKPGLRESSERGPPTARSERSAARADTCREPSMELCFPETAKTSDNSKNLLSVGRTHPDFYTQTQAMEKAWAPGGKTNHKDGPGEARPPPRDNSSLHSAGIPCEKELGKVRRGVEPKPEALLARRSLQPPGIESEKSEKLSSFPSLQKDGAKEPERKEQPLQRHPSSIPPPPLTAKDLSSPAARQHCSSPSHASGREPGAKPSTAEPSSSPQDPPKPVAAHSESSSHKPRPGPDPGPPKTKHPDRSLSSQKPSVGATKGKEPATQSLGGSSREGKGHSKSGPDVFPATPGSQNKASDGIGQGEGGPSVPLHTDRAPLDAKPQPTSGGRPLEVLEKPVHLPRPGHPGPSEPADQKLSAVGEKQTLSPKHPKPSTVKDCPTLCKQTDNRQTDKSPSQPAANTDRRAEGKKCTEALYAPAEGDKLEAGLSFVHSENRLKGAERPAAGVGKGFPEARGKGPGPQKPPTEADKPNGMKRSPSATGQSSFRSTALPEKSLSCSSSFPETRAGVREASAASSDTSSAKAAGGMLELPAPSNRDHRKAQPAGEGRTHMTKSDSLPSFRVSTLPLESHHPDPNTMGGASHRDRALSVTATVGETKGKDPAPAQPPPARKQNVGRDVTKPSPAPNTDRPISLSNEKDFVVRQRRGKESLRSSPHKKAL
In short: as §1

[4] = target: T4, PDZ protein (GST-PDZ fusion) (Homo sapiens, UniProt Q9Y6N9); conditions: PDZ PDZ-73, PDZ Domain 2
T4 construct: made in house; host or cells: E. coli (DH5alpha, BL21 or JM109)
T4 sequence (Q9Y6N9 whole entry, the tested form may be a part): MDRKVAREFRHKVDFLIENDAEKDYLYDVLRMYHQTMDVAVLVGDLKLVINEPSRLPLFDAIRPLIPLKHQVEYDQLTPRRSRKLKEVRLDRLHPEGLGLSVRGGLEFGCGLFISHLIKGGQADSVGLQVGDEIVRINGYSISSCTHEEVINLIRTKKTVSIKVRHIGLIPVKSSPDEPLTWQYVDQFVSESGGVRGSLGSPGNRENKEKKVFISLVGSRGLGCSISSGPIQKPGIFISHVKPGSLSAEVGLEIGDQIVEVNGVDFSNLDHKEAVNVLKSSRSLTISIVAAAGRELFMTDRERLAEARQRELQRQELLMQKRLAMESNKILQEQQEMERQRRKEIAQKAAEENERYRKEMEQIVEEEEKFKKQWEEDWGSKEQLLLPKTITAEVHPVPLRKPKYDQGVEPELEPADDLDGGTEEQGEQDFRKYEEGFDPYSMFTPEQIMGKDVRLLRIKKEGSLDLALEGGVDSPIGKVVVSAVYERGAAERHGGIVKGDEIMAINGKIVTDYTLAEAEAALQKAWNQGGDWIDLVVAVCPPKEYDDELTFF
In short: as §1

[5] = target: T5, PDZ protein (GST-PDZ fusion) (Homo sapiens, UniProt P53667); conditions: PDZ LIMK1, PDZ Domain 1
T5 construct: made in house; host or cells: E. coli (DH5alpha, BL21 or JM109)
T5 sequence (P53667 whole entry, the tested form may be a part): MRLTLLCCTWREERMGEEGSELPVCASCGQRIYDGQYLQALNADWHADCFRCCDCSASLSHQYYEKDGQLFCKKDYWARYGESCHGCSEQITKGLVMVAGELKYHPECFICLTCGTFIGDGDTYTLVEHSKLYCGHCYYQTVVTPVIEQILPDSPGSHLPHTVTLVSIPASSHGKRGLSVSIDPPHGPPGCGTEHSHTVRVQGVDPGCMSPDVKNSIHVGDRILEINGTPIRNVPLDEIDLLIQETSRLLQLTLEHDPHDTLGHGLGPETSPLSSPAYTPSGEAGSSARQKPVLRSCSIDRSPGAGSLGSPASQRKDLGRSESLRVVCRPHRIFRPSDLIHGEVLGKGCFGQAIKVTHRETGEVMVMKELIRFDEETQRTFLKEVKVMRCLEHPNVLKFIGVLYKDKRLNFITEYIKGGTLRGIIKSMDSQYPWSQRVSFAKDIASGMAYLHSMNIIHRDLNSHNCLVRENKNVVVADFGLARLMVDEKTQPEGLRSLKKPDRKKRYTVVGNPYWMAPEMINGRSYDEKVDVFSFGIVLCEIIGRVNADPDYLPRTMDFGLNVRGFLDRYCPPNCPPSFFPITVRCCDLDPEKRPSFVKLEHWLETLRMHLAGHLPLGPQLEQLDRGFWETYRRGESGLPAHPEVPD
In short: as §1

- Classification [1]: 1 (A450 nm 0-1)
- Classification [2]: 1 (A450 nm 0-1)
Compound: CC[C@H](C)[C@H](NC(=O)[C@H](Cc1ccc(O)cc1)NC(=O)[C@H](CC(C)C)NC(=O)[C@H](CCC(N)=O)NC(=O)[C@H](Cc1c[nH]cn1)NC(=O)[C@H](CO)NC(=O)[C@H](C)NC(=O)[C@H](CC(C)C)NC(=O)[C@@H](NC(=O)[C@H](CC(=O)O)NC(=O)[C@H](CCSC)NC(=O)[C@H](Cc1ccccc1)NC(=O)[C@@H]1CCCN1C(=O)[C@H](CCCNC(=N)N)NC(=O)[C@@H](NC(=O)[C@H](CC(C)C)NC(=O)[C@H](CC(N)=O)NC(=O)[C@H](CC(=O)O)NC(=O)[C@@H](NC(=O)[C@H](CO)NC(=O)CCCC[C@@H]1SC[C@@H]2NC(=O)N[C@@H]21)[C@@H](C)O)C(C)C)[C@@H](C)O)C(=O)O [presenilin-2] (Biotin-STDNLVRPFMDTLASHQLYI-OH; C-terminus assumed)

- Classification [2]: 1 (A450 nm 0-1)
Compound: KTMPAATYRLLTGQEQPVYL (Biotin-KTMPAATYRLLTGQEQPVYL) [MINT-3]

- Classification [3]: 1 (A450 nm 0-1)
Compound: ELLQFCRTPNPALKNGQYWV (Biotin-ELLQFCRTPNPALKNGQYWV)

- Classification [4]: 1 (A450 nm 0-1)
Compound: CC[C@H](C)[C@H](NC(=O)CNC(=O)[C@H](CO)NC(=O)[C@H](Cc1ccccc1)NC(=O)[C@@H](NC(=O)[C@H](CS)NC(=O)CNC(=O)CNC(=O)[C@H](C)NC(=O)[C@@H]1CCCN1C(=O)[C@@H](NC(=O)[C@@H]1CCCN1C(=O)CCCC[C@@H]1SC[C@@H]2NC(=O)N[C@@H]21)[C@@H](C)CC)[C@@H](C)O)C(=O)N[C@@H](Cc1ccccc1)C(=O)N1CCC[C@H]1C(=O)N[C@H](C(=O)N[C@@H](CC(C)C)C(=O)N[C@H](C(=O)N[C@@H](CO)C(=O)N1CCC[C@H]1C(=O)N[C@@H](CC(C)C)C(=O)O)[C@@H](C)O)[C@@H](C)O [KIA 1481] (Biotin-PIPAGGCTFSGIFPTLTSPL-OH; C-terminus assumed)

The remaining lines, values behind:

Compound: A2AA_HUMAN (modified) (Biotin-HDFRRAFKKILARGDRKRIV; not fully specified)
- Classification [1]: 3 (A450 nm 2-3)

Compound: CC[C@H](C)[C@H](NC(=O)[C@H](CO)NC(=O)[C@@H](NC(=O)[C@H](Cc1ccccc1)NC(=O)[C@H](CO)NC(=O)CCCC[C@@H]1SC[C@@H]2NC(=O)N[C@@H]21)[C@@H](C)O)C(=O)N[C@@H](CC(C)C)C(=O)N[C@H](C(=O)N[C@@H](CS)C(=O)N[C@@H](Cc1c[nH]cn1)C(=O)N[C@@H](CCC(N)=O)C(=O)N[C@@H](CCCNC(=N)N)C(=O)N[C@@H](CCCNC(=N)N)C(=O)N[C@H](C(=O)N[C@@H](CCC(N)=O)C(=O)N[C@@H](CCCNC(=N)N)C(=O)N[C@@H](CCCCN)C(=O)N[C@@H](CCC(=O)O)C(=O)N[C@H](C(=O)N[C@H](C(=O)N[C@@H](C)C(=O)O)C(C)C)[C@@H](C)O)[C@@H](C)O)[C@@H](C)O [GluR5-2 (rat)]
- Classification [3]: 1 (A450 nm 0-1)

Compound: CSCC[C@H](NC(=O)[C@H](C)NC(=O)[C@H](CCCNC(=N)N)NC(=O)CNC(=O)[C@@H](NC(=O)[C@H](Cc1c[nH]c2ccccc12)NC(=O)[C@H](CCCNC(=N)N)NC(=O)CNC(=O)CCCC[C@@H]1SC[C@@H]2NC(=O)N[C@@H]21)[C@@H](C)O)C(=O)N[C@@H](CO)C(=O)N[C@@H](C)C(=O)N[C@@H](Cc1c[nH]c2ccccc12)C(=O)N[C@@H](CCCCN)C(=O)N1CCC[C@H]1C(=O)N[C@H](C(=O)N[C@@H](CCCNC(=N)N)C(=O)N[C@@H](CCCNC(=N)N)C(=O)N[C@@H](CCC(=O)O)C(=O)N[C@H](C(=O)N[C@@H](CCC(=O)O)C(=O)N[C@H](C(=O)O)C(C)C)[C@@H](C)O)[C@@H](C)O [HPV E6 #35 (modified)] (Biotin-GRWTGRAMSAWKPTRRETEV-OH; C-terminus assumed)
- Classification ([4]; PL peptide 10 uM): 2 (A450 nm 1-2)
- Classification [5]: 1 (A450 nm 0-1)

Compound: CC[C@H](C)[C@H](NC(=O)[C@H](CCC(N)=O)NC(=O)CCCC[C@@H]1SC[C@@H]2NC(=O)N[C@@H]21)C(=O)N[C@@H](CO)C(=O)N1CCC[C@H]1C(=O)NCC(=O)NCC(=O)N[C@@H](CC(C)C)C(=O)N[C@@H](CCC(=O)O)C(=O)N1CCC[C@H]1C(=O)N1CCC[C@H]1C(=O)N[C@@H](CO)C(=O)N[C@@H](CCC(=O)O)C(=O)N[C@@H](CCCCN)C(=O)N[C@@H](Cc1c[nH]cn1)C(=O)N[C@@H](Cc1ccccc1)C(=O)N[C@@H](CCCNC(=N)N)C(=O)N[C@@H](CCC(=O)O)C(=O)N[C@H](C(=O)N[C@@H](CCC(=O)O)C(=O)N[C@H](C(=O)O)C(C)C)[C@@H](C)O [Tax]
- Classification [5]: 1 (A450 nm 0-1)

— patent publication US20050282743A1, “Molecular interactions in cells” (Arbor Vita Corporation, priority 2001, published 2005)
